Test results from ChEMBL document CHEMBL1201862, “PubChem BioAssay data set” (2004).
Active and inactive are the calls of the source.

Tested on: not listed separately
Assay: Trypanosoma cruzi growth suppression in host cells – NIH3T3 host cells, beta-gal luminescence, confirmation (AID 2044);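 also: intracellular parasites grown in NIH/3T3 mouse fibroblasts as host cells; luminescent beta-galactosidase reporter signal from transgenic T. cruzi replicating inside host cells; inhibitors lower the luminescence signal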
Format: functional, cell-based
Conditions: not given

Compound	EC50
Fc1ccc(Sc2ccccc2CNC2=NCCN2)cc1	1.49 µM (active)

Biological target: T1, Protein RecA (Mycobacterium tuberculosis, UniProt P9WHJ3)
T1 sequence (P9WHJ3 whole entry): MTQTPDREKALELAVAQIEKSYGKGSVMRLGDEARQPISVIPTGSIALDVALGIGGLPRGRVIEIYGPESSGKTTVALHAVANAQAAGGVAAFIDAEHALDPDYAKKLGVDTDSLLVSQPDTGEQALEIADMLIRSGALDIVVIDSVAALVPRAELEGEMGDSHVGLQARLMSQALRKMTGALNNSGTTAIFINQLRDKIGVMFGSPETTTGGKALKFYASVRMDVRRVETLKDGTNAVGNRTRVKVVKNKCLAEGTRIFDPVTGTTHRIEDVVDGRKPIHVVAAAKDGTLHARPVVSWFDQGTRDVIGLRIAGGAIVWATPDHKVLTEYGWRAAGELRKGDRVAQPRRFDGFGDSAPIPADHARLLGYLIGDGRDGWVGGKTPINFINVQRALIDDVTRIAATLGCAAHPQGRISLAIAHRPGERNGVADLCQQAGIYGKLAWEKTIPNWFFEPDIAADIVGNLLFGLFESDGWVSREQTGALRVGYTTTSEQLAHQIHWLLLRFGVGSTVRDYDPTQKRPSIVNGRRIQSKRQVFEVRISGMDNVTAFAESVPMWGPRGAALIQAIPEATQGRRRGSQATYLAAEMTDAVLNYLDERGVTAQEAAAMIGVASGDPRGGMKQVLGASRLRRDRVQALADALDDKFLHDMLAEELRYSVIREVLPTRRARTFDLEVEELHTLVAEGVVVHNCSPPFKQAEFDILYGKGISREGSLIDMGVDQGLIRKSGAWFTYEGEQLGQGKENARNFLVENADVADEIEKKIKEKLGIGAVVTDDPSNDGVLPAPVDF
Assay: Fluorescence Cell-Free Homogeneous Dose Retest to Identify Inhibitors of RecA-Intein Splicing Activity. [Related pubchem assays (depositor defined):AID2097, AID2223, AID489010, AID492950]
Format: functional
Conditions: not given

Compound	EC50
CCc1nnc(N/N=C/c2cc(Br)c(O)cc2O)n1N	9.31 µM (active)

Biological target: Cytochrome P450 3A4 (Homo sapiens, UniProt P08684);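 also: confirmatory qHTS run detecting inhibitors and substrates of CYP3A4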
Conditions: Potency

Sequence of Cytochrome P450 3A4 (P08684 whole entry): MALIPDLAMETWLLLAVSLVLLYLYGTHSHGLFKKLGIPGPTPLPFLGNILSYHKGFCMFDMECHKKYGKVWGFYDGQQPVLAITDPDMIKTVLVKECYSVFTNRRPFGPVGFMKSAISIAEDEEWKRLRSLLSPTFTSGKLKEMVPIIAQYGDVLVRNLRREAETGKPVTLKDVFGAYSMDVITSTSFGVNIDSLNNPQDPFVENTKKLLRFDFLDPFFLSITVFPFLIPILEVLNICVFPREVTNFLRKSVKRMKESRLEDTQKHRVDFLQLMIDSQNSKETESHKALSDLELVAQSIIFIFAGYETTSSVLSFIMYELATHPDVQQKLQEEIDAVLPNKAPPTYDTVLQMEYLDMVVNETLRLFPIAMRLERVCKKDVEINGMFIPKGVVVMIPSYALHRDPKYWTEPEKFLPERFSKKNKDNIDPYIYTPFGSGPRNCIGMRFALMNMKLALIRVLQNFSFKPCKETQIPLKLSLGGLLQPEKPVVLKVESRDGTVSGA

Compound	AC50
COCCNC(=O)[C@@]1(Cc2ccccc2)C=C[C@@H](C)N1C(C)=O	20 µM (inconclusive)
Nc1cc(Cl)cc(Cl)c1	31.6 µM (inconclusive)
Cc1ccc(Cl)cc1N	31.6 µM (inconclusive)
C[C@]12CCC(=O)C[C@@H]1CC[C@@H]1[C@@H]2CC[C@]2(C)[C@@H](O)CC[C@@H]12 [STANOLONE]	15.8 µM (inconclusive)
CC1Cc2c(COc3ccccc3)nc3c(c2CO1)CN(CCOc1ccccc1)CC3 (centres undefined)	3.98 µM (inconclusive)
CC1=C(/C=C/C(C)=C/C=C/C(C)=C/CO)C(C)(C)CCC1 [RETINOL]	15.8 µM (inconclusive)
Cc1cc(=O)oc2cc(O)c(O)cc12 [4-METHYLESCULETIN]	15.8 µM (inconclusive)
Nc1cc([N+](=O)[O-])ccc1C(=O)O	10 µM (inconclusive)
Cc1ccc(N)cc1[N+](=O)[O-]	31.6 µM (inconclusive)
O=[N+]([O-])c1ccc2cn[nH]c2c1	12.6 µM (inconclusive)

Biological target: Nonstructural protein 1 (Influenza A virus, UniProt Q194T2)
Format: functional, Influenza A virus (A/California/07/2009(H1N1))
Conditions: not given

Sequence of Nonstructural protein 1 (Q194T2 whole entry): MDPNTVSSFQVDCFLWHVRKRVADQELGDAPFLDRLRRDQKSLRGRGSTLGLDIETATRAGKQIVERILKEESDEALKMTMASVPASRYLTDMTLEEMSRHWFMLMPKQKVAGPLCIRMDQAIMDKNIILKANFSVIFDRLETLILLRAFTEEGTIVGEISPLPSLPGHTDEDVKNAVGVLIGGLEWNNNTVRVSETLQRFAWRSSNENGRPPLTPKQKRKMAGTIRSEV

Compound	IC50
CCc1nnc(N/N=C/c2cc(Br)c(O)cc2O)n1N	6.41 µM (active)

Tested on: not listed separately
Assay: NIH3T3 cell viability loss – ATP luminescence, mouse fibroblasts, counter-screen, dose response (AID 2010);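 also: cells exposed to compound for about 90 hours before reading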
Format: functional, cell-based
Conditions: not given

Compound	EC50
Fc1ccc(Sc2ccccc2CNC2=NCCN2)cc1	> 60 µM (not active)

Biological target: T2, Calpain-2 catalytic subunit (Sus scrofa, UniProt P43367)
T2 sequence (P43367 whole entry): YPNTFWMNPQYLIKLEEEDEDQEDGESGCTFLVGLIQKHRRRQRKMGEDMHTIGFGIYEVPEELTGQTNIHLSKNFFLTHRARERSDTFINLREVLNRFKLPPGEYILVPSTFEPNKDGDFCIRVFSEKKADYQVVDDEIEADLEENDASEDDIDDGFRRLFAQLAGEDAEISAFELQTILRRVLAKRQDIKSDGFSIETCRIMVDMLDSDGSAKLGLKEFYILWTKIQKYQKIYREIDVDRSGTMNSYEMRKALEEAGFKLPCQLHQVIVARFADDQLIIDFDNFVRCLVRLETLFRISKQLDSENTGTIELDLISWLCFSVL
Assay: m-calpain protease blockers, concentration series – biochemical, fluorogenic peptide substrate, dose response (AID 1420)
Format: functional
Conditions: not given

Compound	IC50
CCCN(CCC)S(=O)(=O)c1ccc(NC(=O)COc2ccccc2)cc1	3.3 µM (not active)
CCOC(=O)CCNC(=O)Nc1ccc2nc(C)n(Cc3cccc(Cl)c3)c(=O)c2c1	6.83 µM (not active)
Cc1oc2c(c1C(=O)Nc1cccc3ccccc13)CCCC2	> 50 µM (not active)
O=C1c2ccccc2C(=O)N1CCc1csc(-c2cccc(Cl)c2)n1	3.44 µM (not active)
COc1ccc(Cn2nc(-c3ccccc3)c(N3CCCCC3)cc2=O)cc1	10.6 µM (not active)
CCN1CCN(c2cc(C)c3cc(NC(S)=NCc4cccs4)ccc3n2)CC1	10 µM (not active)
CC(=O)Nc1cc(C(=O)N2CCN(C)CC2)ccc1S(=O)(=O)c1ccc(C)cc1	0.796 µM (not active)

Biological target: T3, Heat shock factor protein 1 (Mus musculus, UniProt P38532)
T3 sequence (P38532 whole entry): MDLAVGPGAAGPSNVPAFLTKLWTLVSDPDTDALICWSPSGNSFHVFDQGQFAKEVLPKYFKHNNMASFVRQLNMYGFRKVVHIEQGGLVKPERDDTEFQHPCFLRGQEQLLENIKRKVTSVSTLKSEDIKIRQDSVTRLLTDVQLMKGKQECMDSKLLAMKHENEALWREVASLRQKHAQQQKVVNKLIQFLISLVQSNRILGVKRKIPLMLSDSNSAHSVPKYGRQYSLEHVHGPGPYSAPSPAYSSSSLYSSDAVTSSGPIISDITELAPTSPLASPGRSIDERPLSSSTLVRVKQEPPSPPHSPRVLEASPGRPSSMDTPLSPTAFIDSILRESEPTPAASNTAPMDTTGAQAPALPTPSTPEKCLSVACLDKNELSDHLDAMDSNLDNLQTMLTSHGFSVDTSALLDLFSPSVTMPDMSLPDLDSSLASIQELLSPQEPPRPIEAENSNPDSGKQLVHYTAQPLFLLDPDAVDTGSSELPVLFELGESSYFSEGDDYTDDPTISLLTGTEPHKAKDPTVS
Assay: enhancement of HSF1-driven luciferase signal – cell-based, NIH3T3, luminescence, dose retest, confirmation (AID 435004);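 also: stress induced by proteasome inhibitor MG132 added 30 min after compound; luciferase reporter driven by HSF1 response element in NIH3T3 cells; actives raise luminescence as potentiators of the MG132 stress response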
Format: functional
Conditions: not given

Compound	EC50
COc1cc(/C=N/Nc2snc(SC)c2C#N)ccc1O	> 260 µM (inactive)
Cc1ccc(C)c(S(=O)(=O)N2CCCCC2CCNC(=O)C(=O)NCCc2ccco2)c1 (centres undefined)	> 260 µM (inactive)
Cc1cc(OCC(=O)N(Cc2ccco2)C2CCS(=O)(=O)C2)cc(C)c1Cl (centres undefined)	> 260 µM (inactive)
O=C(COC(=O)c1ccc(S(=O)(=O)NCc2ccco2)cc1)Nc1ccccc1OC(F)F	> 260 µM (inactive)
O=C(COC(=O)/C=C/c1cccc([N+](=O)[O-])c1)NCc1ccco1	> 260 µM (inactive)
Nc1nnnn1CC(=O)N/N=C/c1ccccn1	> 260 µM (inactive)
COCCn1c(C)cc(C(=O)COC(=O)c2ccc(-n3nc(C)cc3C)cc2)c1C	> 260 µM (inactive)
CC1(C)CC(CCN)(Cc2ccccc2Cl)CCO1 (centres undefined)	> 260 µM (inactive)
Fc1ccc(Sc2ccccc2CNC2=NCCN2)cc1	> 260 µM (inactive)
CN(Cc1cccc2cnccc12)C(=O)c1cc(COc2ccc(F)cc2F)on1	> 260 µM (inactive)

Biological target: T4, Replicative DNA helicase DnaB (Mycobacterium tuberculosis, UniProt P9WMR3)
T4 sequence (P9WMR3 whole entry): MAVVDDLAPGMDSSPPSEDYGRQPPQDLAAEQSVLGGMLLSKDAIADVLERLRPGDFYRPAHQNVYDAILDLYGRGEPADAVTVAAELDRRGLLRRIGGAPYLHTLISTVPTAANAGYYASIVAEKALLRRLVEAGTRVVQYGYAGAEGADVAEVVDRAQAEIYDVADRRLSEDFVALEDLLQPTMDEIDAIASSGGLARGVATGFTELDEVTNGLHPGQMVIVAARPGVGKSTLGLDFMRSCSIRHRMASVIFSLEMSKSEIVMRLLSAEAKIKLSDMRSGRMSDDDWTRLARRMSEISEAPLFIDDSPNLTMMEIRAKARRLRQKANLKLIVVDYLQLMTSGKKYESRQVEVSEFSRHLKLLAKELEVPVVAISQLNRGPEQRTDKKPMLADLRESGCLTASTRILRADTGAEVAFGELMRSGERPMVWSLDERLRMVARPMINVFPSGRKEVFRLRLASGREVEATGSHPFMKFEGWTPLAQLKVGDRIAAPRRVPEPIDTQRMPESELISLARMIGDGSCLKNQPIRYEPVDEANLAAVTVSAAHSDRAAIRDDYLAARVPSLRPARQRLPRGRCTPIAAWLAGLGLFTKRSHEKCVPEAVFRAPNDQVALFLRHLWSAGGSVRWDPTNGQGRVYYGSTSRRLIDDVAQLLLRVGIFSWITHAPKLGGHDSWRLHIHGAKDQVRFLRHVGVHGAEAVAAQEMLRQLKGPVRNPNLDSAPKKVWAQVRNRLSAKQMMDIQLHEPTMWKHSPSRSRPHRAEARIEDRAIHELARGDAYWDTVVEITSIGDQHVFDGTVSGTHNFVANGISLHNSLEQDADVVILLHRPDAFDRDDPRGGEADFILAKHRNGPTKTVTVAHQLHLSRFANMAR
Assay: DnaB intein splicing inhibitors, dose response, biochemical, cell-free fluorescence (AID 449749)
Format: functional
Conditions: not given

Compound	AC50
CCc1nnc(N/N=C/c2cc(Br)c(O)cc2O)n1N	> 380 µM (inactive)

Biological target: T5, Rac GTPase-activating protein 1 (Homo sapiens, UniProt Q9H0H5)
T5 sequence (Q9H0H5 whole entry): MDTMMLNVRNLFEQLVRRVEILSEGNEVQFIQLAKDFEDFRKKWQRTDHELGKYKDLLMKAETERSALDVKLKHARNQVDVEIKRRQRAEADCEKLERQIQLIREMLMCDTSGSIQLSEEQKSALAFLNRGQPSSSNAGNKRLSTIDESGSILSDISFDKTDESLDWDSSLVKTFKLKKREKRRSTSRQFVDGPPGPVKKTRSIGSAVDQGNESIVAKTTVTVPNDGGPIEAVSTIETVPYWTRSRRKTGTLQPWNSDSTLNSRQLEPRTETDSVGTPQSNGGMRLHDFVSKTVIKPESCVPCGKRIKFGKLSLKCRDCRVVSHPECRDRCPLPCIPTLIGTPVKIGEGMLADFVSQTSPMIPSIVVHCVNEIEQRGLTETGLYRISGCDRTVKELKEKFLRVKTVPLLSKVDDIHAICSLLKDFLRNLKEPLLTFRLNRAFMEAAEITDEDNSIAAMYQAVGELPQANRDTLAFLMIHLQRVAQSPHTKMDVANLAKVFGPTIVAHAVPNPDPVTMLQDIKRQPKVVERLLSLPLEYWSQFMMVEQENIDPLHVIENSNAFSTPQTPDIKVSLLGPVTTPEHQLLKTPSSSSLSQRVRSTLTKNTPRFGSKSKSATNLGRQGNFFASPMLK
Assay: blockers of MgcRacGAP-driven Rac1 GTP hydrolysis – biochemical, ADP Hunter fluorescence, primary and confirmatory, confirmation (AID 624330)
Format: functional
Conditions: not given

Compound	IC50
CCc1nnc(N/N=C/c2cc(Br)c(O)cc2O)n1N	66.2 µM (active)

Biological target: T6, Microphthalmia-associated transcription factor (Homo sapiens, UniProt O75030)
T6 sequence (O75030 whole entry): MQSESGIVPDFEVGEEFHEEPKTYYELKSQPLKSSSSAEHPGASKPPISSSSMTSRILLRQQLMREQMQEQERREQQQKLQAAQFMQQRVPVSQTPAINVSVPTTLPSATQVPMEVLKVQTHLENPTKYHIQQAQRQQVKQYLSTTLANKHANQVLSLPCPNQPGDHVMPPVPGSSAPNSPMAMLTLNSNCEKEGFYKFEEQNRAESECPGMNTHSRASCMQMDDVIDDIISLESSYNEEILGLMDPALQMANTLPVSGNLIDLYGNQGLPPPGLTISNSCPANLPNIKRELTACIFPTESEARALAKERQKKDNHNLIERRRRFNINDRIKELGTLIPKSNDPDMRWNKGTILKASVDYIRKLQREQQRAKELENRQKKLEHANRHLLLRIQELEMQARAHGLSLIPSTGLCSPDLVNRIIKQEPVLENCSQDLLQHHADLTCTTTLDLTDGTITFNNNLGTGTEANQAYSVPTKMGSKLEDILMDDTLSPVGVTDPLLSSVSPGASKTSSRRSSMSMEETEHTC
Assay: reducers of TRPM1 reporter luminescence, concentration series – cell-based, SK-MEL-5, cherry-picked, set 3, MITF inhibitor project, dose response (AID 493073);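 also: SK-MEL-5 melanoma cells with luciferase driven by the MITF target TRPM1 promoter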
Format: functional
Conditions: not given

Compound	AC50
CC(C)(C)C(=O)Cn1ncc(Cl)c(Cl)c1=O	10.4 µM (active)
